Laboratory results published in patent US10093675B2, “6,8-disubstituted-9-(heterocyclyl)purines, compositions containing these derivatives and their use in cosmetic and medicinal applications” (USTAV EXPERIMENTALNI BOTANIKY AV CR, V.V.I., priority 2014, dated 2018).

Key:
[1] = test system: excised wheat leaf tips (Triticum aestivum cv. Hereward); assay: Senescence inhibition on winter wheat leaf segments (retention of chlorophyll); format: in vivo; details: 10^−4 mol/L; 96 hours in the dark; activity of kinetin set at 100%
Description: (§1) Seeds of winter wheat, Triticum aestivum cv. Hereward, were washed under running water for 24 hours and then sown on vermiculite soaked with Knop's solution. They were placed in the grown chamber at 25° C. with a 16/8 hours light period at […]. After 7 days, the first leaf was fully developed and the second leaf had started to grow. A tip section of the first leaf, approximately 35 mm long, was removed from 5 seedlings and trimmed slightly to a combined weight of 100 mg. The basal ends of the five leaf tips were placed in the wells of a microtiter polystyrene plate containing […] of a cytokinin solution each. The entire plate was inserted into a plastic box lined with paper tissues soaked in distilled water to prevent leaf sections from drying out. After 96 hours incubation in the dark at 25° C., the leaves were removed and chlorophyll extracted by heating at 80 C for 10 min in 5 ml of 80% ethanol (v/v). The sample volume was then restored to 5 ml by the addition of 80% ethanol (v/v). The absorbance of the extract was recorded at 665 nm. In addition, chlorophyll extracts from fresh leaves and leaf tips incubated in deionized water were measured. From the obtained data, the concentration with highest activity was selected for each compound tested. Relative activity of the compound at this concentration was calculated (see Table 6 below). The activity obtained for 10^−4 M kinetin (Kin) was set as 100%. The values shown are means of five replicates and the whole experiment was repeated twice.
The compounds to be tested were dissolved in dimethylsulfoxide (DMSO) and the solution brought up to 10^−3 M with distilled water. […] As summarized in Table 6 below, the presence of C-8 substitutent was beneficial and led to increase of antisenescent properties.

[2] = test system: cytokinin-dependent tobacco callus Nicotiana tabacum L. cv. Wisconsin 38; assay: Plant cell division: growth of cytokinin-dependent tobacco callus; format: cell-based; details: for Activity (%); (s.d.): relative activity at concentration with highest activity, 10^−6 M kinetin set at 100%; for Concentration with highest activity (mol/l): tobacco callus fresh weight increase after four weeks, tested 10^−8 M to 10^−4 M
Description: Cytokinin-dependent tobacco callus Nicotiana tabacum L. cv. Wisconsin 38 was maintained at 25° C. in darkness on modified MS medium, containing 4 μmol/l nicotinic acid, 2.4 μmol/l pyridoxine hydrochloride, 1.2 μmol/l thiamine, 26.6 μmol/l glycine, 1.37 μmol/l glutamine, 1.8 μmol/l myo-inositol, 30 g/l of sucrose, 8 g/l of agar, 5.37 μmol/l NAA and 0.5 μmol/l BAP. Subcultivation was carried out every three weeks. Fourteen days before the bioassay, the callus tissue was transferred to the media without BAP. Biological activity was determined from the increase in fresh callus weight after four weeks of cultivation. Five replicates were prepared for each cytokinin concentration and the entire test was repeated twice. From the obtained data, the concentration with highest activity was selected for each compound tested. Relative activity at this concentration was calculated (see Table 17 below). The activity obtained for 10^−6 M kinetin (Kin) was set as 100%.
The cytokinins to be tested were dissolved in dimethylsulfoxide (DMSO) and the solution brought up to 10^−3M with distilled water.

[3] = test system: normal diploid fibroblasts BJ; assay: In vitro cytotoxic activity (Calcein AM), BJ; format: cell-based, human; details: 72 hours, read-out: Cell line tested/IC50 (μmol/L) BJ
Text: (§2) Because toxic compounds negatively influence metabolic processes of cells, many standard cytotoxicity assays are based on measurement of metabolisation rate of various artificial substrates. Resulting product is then quantified, for example, by means of spectrometry. The assays can be easily modified for use in 96-well plates. For evaluation of cytotoxicity of the […] of this invention, a microtiter assay based on quantification of metabolisation of Calcein AM was used. The assay is widely used in drug screening programs and in chemosensitivity testing. In live cells, Calcein AM is enzymatically hydrolysed and accumulation of resulting calcein is manifested by green fluorescence.
(§3) The following human cell lines were used for routine screening of the compounds: normal diploid fibroblasts BJ, T-lymphoblastic leukemia cell line CEM, promyelocytic leukemia cell line HL-60, erytroid leukemia cell line K-562, breast carcinoma cell line MCF-7, osteosarcoma cell line HOS and melanoma cell line G-361. The cells were maintained in Nunc/Corning 80 cm^2 plastic tissue culture flasks and cultured in cell culture medium (DMEM with 5 g/l glucose, 2 mM glutamine, 100 U/ml penicillin, 100 mmg/ml streptomycin, 10% fetal calf serum and sodium bicarbonate). The cell suspensions were prepared and diluted according to the particular cell type and the expected target cell density (2.500-30.000 cells per well based on cell growth characteristics) and pipetted (80 μl) into 96-well plates. Inoculates were allowed a pre-incubation period of 24 hours at 37° C. and 5% CO2 for stabilization. Tested compound was added in total volume of 20 μl of water at time zero. Usually, test compound was evaluated at six 3-fold dilutions. In routine testing, the highest concentration tested was 100 μM, but it could have been adjusted because of limited solubility of a compound. All drug concentrations were tested in triplicates.
(§4) Incubations of cells with the test compounds lasted for 72 hours at 37° C., in 5% CO2 atmosphere and 100% humidity. At the end of incubation period Calcein AM in PBS was added into final concentration of 1 μg/ml. After another 1 hour of incubation fluorescence (FD) was measured with the Labsystem FIA Reader Fluoroscan Ascent (UK). Growth inhibition (GI) was estimated using the following equitation: GI=(mean FDdrug exposed wells−mean FDblank)/(mean FDcontrol wells−mean FDblank)×100%. The GI50 value, the drug concentration causing 50% reduction of Calcein AM conversion, was calculated from the obtained dose response curves.

[4] = test system: T-lymphoblastic leukemia cell line CEM; assay: In vitro cytotoxic activity (Calcein AM), CEM; format: cell-based, human; details: 72 hours, read-out: Cell line tested/IC50 (μmol/L) CEM
Text: as §2, §3, §4

[5] = test system: erytroid leukemia cell line K-562; assay: In vitro cytotoxic activity (Calcein AM), K-562; format: cell-based, human; details: 72 hours, read-out: Cell line tested/IC50 (μmol/L) K-562
Text: as §2, §3, §4

[6] = test system: breast carcinoma cell line MCF-7; assay: In vitro cytotoxic activity (Calcein AM), MCF-7; format: cell-based, human; details: 72 hours, read-out: Cell line tested/IC50 (μmol/L) MCF7
Text: as §2, §3, §4

[7] = test system: osteosarcoma cell line HOS; assay: In vitro cytotoxic activity (Calcein AM), HOS; format: cell-based, human; details: 72 hours, read-out: Cell line tested/IC50 (μmol/L) HOS
Text: as §2, §3, §4

melanoma cell line G-361 = assay: In vitro cytotoxic activity (Calcein AM), G-361; format: cell-based, human; details: 72 hours, read-out: Cell line tested/IC50 (μmol/L) G-361
Text: as §2, §3, §4

[8] = test system: Human diploid fibroblast BJ; assay: In vitro cytotoxic activity (MTT); format: cell-based; details: 72 hours incubation; concentration causing 20% decrease in mitochondrial dehydrogenase activity
Description: MTT (metabolic tetrazolium toxicity) assay is a standard colorimetric assay for evaluation of cytotoxicity. Mitochondrial dehydrogenase activity converts yellow MTT into violet formazan which is measured by means of spectrometry.
Human diploid fibroblast BJ (passage 18-22) were seeded into 96-well plate (5.000 cells per well). After 6 hours cultivation medium (DMEM with 5 g/l glucose, 2 mM glutamine, 100 U/ml penicillin, 100 mmg/ml streptomycin, 10% fetal calf serum and sodium bicarbonate) was replaced with the cultivation medium containing test compounds in concentration range of 0-200 µM. Highest concentration was adjusted if the solubility of the compound was limiting. Every concentration was tested in pentaplicate. MTT was added to the cells after 72 hours incubation (final concentration 0.5 mg/ml) and incubation continued for another 3 hours. MTT was solubilised by DMSO and absorbance at 570 nm was measured. Growth inhibition (GI) was estimated using the following equitation: GI=(mean A drug exposed wells−mean Ablank/mean Acontrol wells−mean Ablank)×100%. The GI20 value, the drug concentration causing 20% decrease in mitochondrial dehydrogenase activity, was calculated from the obtained dose response curves.

[9] = test system: Salmonella typhimurium histidien auxotrophs TA98 and TA100; assay: Ames test; format: cell-based; details: 2.5 to 5000 μg/plate; presence and absence of Aroclor-induced rat liver S9
Summary of the method: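 Strains TA98 and TA100 exposed to compounds in DMSO at 2.5, 5.0, 15, 50, 500, 1500 and 5000 μg/plate following standard Ames/Maron protocols.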

[10] = test system: detached leaves of Triticum aestivum cv. Hereward; assay: Membrane lipid peroxidation (MDA, TBA method) in detached wheat leaves during dark senescence; format: in vivo; details: four days in the dark, Control 18.9 (±2.2)
Description: A typical symptom associated with senescence as a direct consequence of increased reactive oxygen species is lipid peroxidation. Therefore the levels of MDA, a decomposition product of lipid peroxidation, were measured in detached wheat leaves that were exposed to the prepared novel derivatives and kinetin for four days in the dark as described in Example 8. MDA levels were measured using a thiobarbituric acid (TBA) method. In detail, 100 mg of fresh plant material was homogenized by high speed shaking in a ball mill (MM301, Retsch, Germany) with 1 mL of 80% methanol. The crude extract was centrifuged at 10,000×g for 5 min, and 100 μL aliquot of supernatant was vortexed with 100 μL of 0.5% (w/v) TBA containing 0.1% (w/v) trichloroacetic acid, and the resulting solution was then incubated for 30 min at 95° C. The samples were quickly cooled on ice and recentrifuged for 5 min at 1000×g. The absorbance of supernatant was measured at 532 nm with background subtraction at 600 nm and the amount of MDA-TBA complex was calculated from the coefficient of absorbance 155 mM^−1cm^−1.
as §1

Structure (SMILES) | Activity (%) (s.d.), retention of chlorophyll [1] | Activity (%); (s.d.) [2] | Concentration with highest activity (mol/l) [2] | IC50 [3] [µmol/L] | IC50 [4] [µmol/L] | IC50 [5] [µmol/L] | IC50 [6] [µmol/L] | IC50 [7] [µmol/L] | IC50 (melanoma cell line G-361) [µmol/L] | GI20 [8] [µM] | mutagenic response [9] | MDA (nmol/g FW) [10]
Fc1cccc(CNc2ncnc3c2nc(Cl)n3C2CCCCO2)c1 (stereo not shown) [Compound 7] | 110 (±2) % | 114 (±5) % | 10^−6-10^−4 mol/l | > 100 | > 100 | > 50 | > 100 | > 100 | > 100 | >200 | – | –
COc1cccc(CNc2ncnc3c2nc(Cl)n3C2CCCCO2)c1 (stereo not shown) [Compound 8] | 125 (±6) % | 119 (±7) % | 10^−6-10^−4 mol/l | > 100 | > 100 | > 100 | > 100 | > 100 | > 100 | >200 | – | –
COc1cccc(CNc2ncnc3c2nc(Br)n3C2CCCCO2)c1 (stereo not shown) [Compound 28] | 126 (±7) % | 107 (±2) % | 10^−6-10^−4 mol/l | > 50 | > 50 | > 50 | > 50 | > 50 | > 50 | >100 | – | –
CSc1nc2c(NCc3cccc(O)c3)ncnc2n1C1CCCCO1 (stereo not shown) [Compound 149] | – | 107 (±1) % | 10^−6-10^−4 mol/l | > 50 | > 50 | > 50 | > 50 | > 50 | > 50 | >100 | no positive mutagenic responses | –
COc1cccc(CNc2ncnc3c2nc(SC)n3C2CCCCO2)c1 (stereo not shown) [Compound 150] | – | 105 (±2) % | 10^−6-10^−5 mol/l | > 50 | > 50 | > 50 | > 50 | > 50 | > 50 | >100 | no positive mutagenic responses | –
CSc1nc2c(NCc3cccc(F)c3)ncnc2n1C1CCCCO1 (stereo not shown) [Compound 151] | – | 109 (±5) % | 10^−6-10^−4 mol/l | > 50 | > 50 | > 50 | > 50 | > 50 | > 50 | >100 | no positive mutagenic responses | –
COc1nc2c(NCc3ccco3)ncnc2n1C1CCCO1 (stereo not shown) [Compound 206] | – | 110 (±3) % | 10^−6-10^−4 mol/l | > 50 | > 50 | > 50 | > 50 | > 50 | > 50 | >100 | – | 10.5 (±0.4) nmol/g FW
COc1nc2c(NCC=C(C)CO)ncnc2n1C1CCCO1 (stereo not shown) [Compound 208] | – | 119 (±7) % | 10^−6-10^−4 mol/l | > 50 | > 50 | > 50 | > 50 | > 50 | > 50 | >100 | no positive mutagenic responses | –
CSc1nc2c(NCc3ccco3)ncnc2n1C1CCCO1 (stereo not shown) [Compound 216] | – | 103 (±4) % | 10^−6-10^−4 mol/l | > 50 | > 50 | > 50 | > 50 | > 50 | > 50 | >100 | no positive mutagenic responses | –
CSc1nc2c(NCC=C(C)C)ncnc2n1C1CCCO1 (stereo not shown) [Compound 218] | – | 113 (±5) % | 10^−6-10^−4 mol/l | > 50 | > 50 | > 50 | > 50 | > 50 | > 50 | >100 | no positive mutagenic responses | –
